# PubChem BioAssay (NCI)
#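 Abbreviation: GI50, concentration required for 50% inhibition of growth. TGI marks complete inhibition of growth.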
# What was measured:
# Assay in all cases: NCI-60 cell line screen, 384-well format
# [1] = test system: NCI-H226 lung
# [2] = test system: CCRF-CEM leukemia
# [3] = test system: SR leukemia
# [4] = test system: HCC-2998 colon
# [5] = test system: KM12 colon
# [6] = test system: NCI-H460 NSCLC
# [7] = test system: SF-539 CNS
# [8] = test system: OVCAR-4 ovarian
# [9] = test system: MDA-MB-435 melanoma
# [10] = test system: NCI-H522 lung
# [11] = test system: SK-MEL-2 melanoma
# [12] = test system: HS 578T breast
# [13] = test system: MOLT-4 leukemia
compound,measurement,setting,value
Cc1cc([C@H](C)Nc2nccc(N3C(=O)OC[C@@H]3[C@H](C)F)n2)ncc1-c1ccnc(C(F)(F)F)c1,GI50,[1],25.3 µM
same,TGI,[1],> 100 µM
same,GI50,[2],7.56 µM
same,TGI,[2],31.5 µM
same,GI50,[3],11.1 µM
same,TGI,[3],25.4 µM
same,GI50,[4],24.6 µM
same,TGI,[4],> 100 µM
same,GI50,[5],40.1 µM
same,TGI,[5],> 100 µM
same,GI50,[6],37.1 µM
same,TGI,[6],> 100 µM
same,GI50,[7],96.3 µM
same,TGI,[7],> 100 µM
same,GI50,[8],29.6 µM
same,TGI,[8],> 100 µM
same,GI50,[9],52.7 µM
same,TGI,[9],> 100 µM
same,GI50,[10],13.5 µM
same,TGI,[10],58.7 µM
same,GI50,[11],82.9 µM
same,TGI,[11],> 100 µM
same,GI50,[12],16.1 µM
same,TGI,[12],> 100 µM
same,GI50,[13],12.5 µM
same,TGI,[13],25.3 µM
